This is an account of results in patent US5441563A, “Highly insoluble azole embossing inhibitor and the use thereof” (Armstrong World Industries, Inc., priority 1994, dated 1995).

In brackets after ≈: the same amount, converted by molar mass. A value given as a limit tells only on which side of the number the result lay.

Series [1] in a line: physchem. The series is classed as physicochemical. As to conditions: for Solubility in iPrOH: 1440 min.
Series [2] is described as follows: Inhibitor activity (IA), depth of chemical embossing and degree of expansion ranked against BTA-P (Table II). The arrangement: key to Inhibitor Activity (IA): 1: Excellent; 2: Very Good; 3: Good; 4: Fair; 5: Poor; None. As to conditions: 10% by weight inhibitor in ink; scale 1 to 5, BTA-P benchmark = 1; 7 mil plastisol, 185 °C, 1.9 min. How it is done: Table II sets forth a number of properties of the examples and comparative examples which were made and tested. Most of these compounds were prepared using the direct milling procedure and then evaluated for inhibitor activity, ghosting and embossing definition.
The inhibited inks (at 10% by weight inhibitor concentration) were printed on 7 mils of an expandable plastisol coated onto a glass mat which was saturated with a non-expandable plastisol. This was done on a flat-bed gravure proof press using a 100 line screen step-wedge gravure plate. The steps ranged from a deep shadow tone to a shallow highlight tone. The inks printed and dried without any tack.
The printed samples were coated with 10 mils of a clear plastisol wearlayer and heated for 1.9±0.1 minutes at an air temperature of 185°±2° C. in a Werner. Mathis oven to fuse and expand the foamable plastisol to about 14 mils (a 2:1 blow ratio). The thickness of the printed coated areas (i.e., restricted area) was measured in mils and compared to the thickness of the expanded unprinted surrounding areas. This difference was recorded as depth of chemical embossing and was used along with the degree of expansion in the inhibited area to access the inhibitor activity (IA).
The inhibitor activity of the BTA-P derivative was established as the benchmark and on a scale of 1 to 5 was given a rating of 1 (five on the scale being less than one mil of overall chemical embossing). This is a subjective ranking where the other compounds were evaluated for inhibitor activity by comparing them to BTA-P, both numerically and visually.

Usually solubility stands for the concentration that dissolves in the medium under given conditions. Consider `c1ccc2c(c1)ncn2CN1CCN(Cn2cnc3ccccc32)CC1` [BI-P, N,N'-Bis(Benzimidazol-1-yl Methyl) Piperazine], for which, in series [1], the “Solubility in iPrOH” value worked out at 0.211 % BY WT. This molecule also yielded a solubility at 24 h in series [1] (water) of 530 µg/mL (≈ 1530 µM). In addition, the “Inhibitor Activity (IA)” value in series [2] is on record as 1.

Turning to `Cc1ccc2c(c1)nnn2CNC(=O)NCn1nnc2cc(C)ccc21` [Example 5-TTA-U, 1,3-bis(5'-tolyltriazol-1'-ylmethyl) urea], in series [2], the “Inhibitor Activity (IA)” value worked out at 3.

As for “1Bis(hydroxyethyl)aminomethyltotyltriazole [TTA-HE, reference compound]”, the “Solubility in iPrOH” value in series [1] was above 50 % BY WT. In addition, the “Solubility in H2O” value in series [1] (water, 24 h) is listed as around 50 % BY WT. Further, the “Inhibitor Activity (IA)” value in series [2] is given as 3.

Turning to `CS(=O)(=O)NCn1nnc2ccccc21` [BTA-MSA, 1-(1'-methanesulfonamido) methyl benzotriazole], in series [2], the “Inhibitor Activity (IA)” value worked out at 5.

As for `O=C(NCn1nnc2ccccc21)NCn1nnc2ccccc21` [BTA-U, 1,3-bis(benzotriazol-1'-ylmethyl) urea], in series [1], the “Solubility in iPrOH” value was determined as 0.08 % BY WT. The molecule also gave a solubility at 24 h in series [1] (water) of 20 µg/mL (≈ 62 µM). Also, in series [2], the “Inhibitor Activity (IA)” value is given as 1.

`O=C(NCn1nnc2ccccc21)c1ccccc1` [BTA-PA, reference compound]: the “Inhibitor Activity (IA)” value in series [2] was “N”.

With `ON(Cn1nnc2ccccc21)Cn1nnc2ccccc21` [BTA-NOH, N,N-bis (benzotriazol-1-yl methyl) hydroxylamine], the “Solubility in iPrOH” value in series [1] is reported as 1.08 % BY WT. Also, the solubility at 24 h in series [1] (water) is 800 µg/mL (≈ 2710 µM). In addition, in series [2], the “Inhibitor Activity (IA)” value came to 1.

On to `O=C1CNC(=O)N1Cn1nnc2ccccc21` [BTA-H], for which, in series [2], the “Inhibitor Activity (IA)” value amounted to 5.

As to `c1ccc2[nH]nnc2c1` [BTA, Benzotriazole, reference compound], the “Solubility in iPrOH” value in series [1] was found to be 53.9 % BY WT. In series [1] (water), this molecule showed a solubility at 24 h of 19800 µg/mL (≈ 166000 µM). Moreover, the “Inhibitor Activity (IA)” value in series [2] was determined as 2.

In the case of `O=C(NCn1nnc2ccccc21)NC(=O)NCn1nnc2ccccc21` [BTA-B, 1,5-Bis(Benzotriazol-1'-yl Methyl) Biuret], in series [2], the “Inhibitor Activity (IA)” value is 4.

Consider `CN(Cn1nnc2ccccc21)C(=O)N(C)Cn1nnc2ccccc21` [BTA-DMU, 1,3-Bis(benzotriazol-1'-ylmethyl) N,N'-dimethyl urea], for which the “Inhibitor Activity (IA)” value in series [2] was determined as 3.

Turning to `O=C(O)c1ccc(S(=O)(=O)NCn2nnc3ccccc32)cc1` [BTA-4CBSA, N-(Benzotriazol-1-yl Methyl)-4'-Carboxybenzene Sulfonamide], the “Solubility in iPrOH” value in series [1] stood at 0.137 % BY WT. Moreover, the concentration in solution in series [1] (water) (solubility at 24 h) was 110 µg/mL (≈ 331 µM). For the same molecule, the “Inhibitor Activity (IA)” value in series [2] is recorded as 1.

Regarding `c1ccc(-c2nc(NCn3nnc4ccccc43)nc(NCn3nnc4ccccc43)n2)cc1` [BTA-BG, 2,4-bis(benzotriazol-1'-ylmethyl) benzoguanamine], the “Inhibitor Activity (IA)” value in series [2] was determined as 4.

In the case of `O=C(O)CN(Cn1nnc2ccccc21)Cn1nnc2ccccc21` [BTA-G, N,N-bis(benzotriazol-1-ylmethyl) glycine], the “Solubility in iPrOH” value in series [1] worked out at 0.914 % BY WT. For the same molecule, in series [1] (water), the concentration in solution (solubility at 24 h) was 6900 µg/mL (≈ 20500 µM). The “Inhibitor Activity (IA)” value in series [2] was determined as 1.

Turning to `c1ccc2c(c1)nnn2CNc1nc(NCn2nnc3ccccc32)nc(NCn2nnc3ccccc32)n1` [Example 3BTA-M], the “Inhibitor Activity (IA)” value in series [2] amounted to 3.

`CCCCc1ccc2c(c1)nnn2CNC(=O)NCn1nnc2cc(CCCC)ccc21` [Example 5-BBTA-U, 1,3-Bis(5'-Butyl Benzotriazol-1'-yl Methyl) Urea]: the “Inhibitor Activity (IA)” value in series [2] is given as 3.

For the molecule `CC(n1nnc2ccccc21)n1c2ccccc2c2ccccc21` (stereo not drawn) [BTA-C, 1-(1'-(Carbazo-9'-yl)Ethyl) Benzotriazole, reference compound], the “Inhibitor Activity (IA)” value in series [2] is listed as “N”.

For `c1ccc2c(c1)nnn2Cn1nnc2ccccc21` [BTA-D, reference compound], the “Inhibitor Activity (IA)” value in series [2] is recorded as “N”.

As for `CC(N1CCCC1=O)n1nnc2ccccc21` (stereo not drawn) [BTA-PY, 1-(1'-(2'-oxopyrrolidin-1'-yl)ethyl) benzotriazole], the “Inhibitor Activity (IA)” value in series [2] came out at 5.
